Assay results reported in US20120121591A1 (priority 2009, published 2012).

Legend:
Type in all cases: cell-based
hKv1.3 = hKv1.3 (Homo sapiens, UniProt P22001); assay: cell-based; conditions: Kv1.3 (IWQ) IC50 (nM, Avg)
[1] = system: IL-2 secretion from T cells in human whole blood; conditions: read-out: WB (IL-2) IC50 (nM, Avg)
[2] = system: IFN-g secretion from T cells in human whole blood; conditions: read-out: WB (IFNg) IC50 (nM, Avg)

Sequence of hKv1.3 (P22001 whole entry): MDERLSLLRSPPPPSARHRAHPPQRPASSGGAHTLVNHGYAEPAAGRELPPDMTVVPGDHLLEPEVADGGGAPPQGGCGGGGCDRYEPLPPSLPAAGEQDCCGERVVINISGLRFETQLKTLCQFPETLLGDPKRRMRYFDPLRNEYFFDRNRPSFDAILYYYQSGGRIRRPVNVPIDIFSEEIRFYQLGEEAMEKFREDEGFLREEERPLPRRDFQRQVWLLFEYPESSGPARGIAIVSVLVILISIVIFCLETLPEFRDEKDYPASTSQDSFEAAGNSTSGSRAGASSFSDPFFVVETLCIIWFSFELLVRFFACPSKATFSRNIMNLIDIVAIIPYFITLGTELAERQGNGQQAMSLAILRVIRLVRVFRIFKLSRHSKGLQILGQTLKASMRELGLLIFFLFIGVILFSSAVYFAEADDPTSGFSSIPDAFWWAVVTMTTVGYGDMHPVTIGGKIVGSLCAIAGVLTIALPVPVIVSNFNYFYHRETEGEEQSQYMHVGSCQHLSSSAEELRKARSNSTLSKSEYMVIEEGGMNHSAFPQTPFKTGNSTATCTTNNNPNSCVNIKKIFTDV

Structure (SMILES): CC[C@H](C)[C@@H]1NC(=O)[C@H]([C@@H](C)O)NC(=O)[C@H](CC(=O)O)NC(=O)[C@H](CCC(=O)O)NC(=O)[C@@H](NC(=O)[C@H](CO)NC(=O)[C@@H](N)CCCNC(=N)N)CSSC[C@@H](C(N)=O)NC(=O)[C@H]([C@@H](C)O)NC(=O)CNC(=O)[C@@H]2CSSC[C@@H]3NC(=O)[C@H](CCCCN)NC(=O)[C@H](Cc4ccccc4)NC(=O)[C@H](C)NC(=O)[C@H]([C@@H](C)O)NC(=O)[C@H](CSSC[C@H](NC(=O)[C@H](Cc4ccccc4)NC(=O)[C@H](CO)NC(=O)[C@H](CC(C)C)NC(=O)[C@H](CCCNC(=N)N)NC(=O)[C@H](Cc4ccc(O)cc4)NC(=O)[C@H](CCCCN)NC(=O)[C@H](CO)NC(=O)[C@H](CO)NC(=O)[C@H](Cc4c[nH]cn4)NC(=O)[C@H](CCCCN)NC3=O)C(=O)N[C@@H](CCCNC(=N)N)C(=O)N[C@@H](CCCCN)C(=O)N[C@@H]([C@@H](C)O)C(=O)N2)NC(=O)[C@H](CCCNC(=N)N)NC(=O)[C@H](CO)NC(=O)[C@H](CCCCN)NC(=O)[C@@H]2CCCN2C1=O [[Glu4, Lys16,Ser21]ShK-amide]
- IC50 (hKv1.3): 0.098 nM
- IC50 [1]: 0.86 nM
- IC50 [2]: 1.99 nM

Structure (SMILES): CC[C@H](C)[C@@H]1NC(=O)[C@H]([C@@H](C)O)NC(=O)[C@H](CC(=O)O)NC(=O)[C@H](CCC(=O)O)NC(=O)[C@@H](NC(=O)[C@H](CO)NC(=O)[C@@H](N)CCCNC(=N)N)CSSC[C@@H](C(N)=O)NC(=O)[C@H]([C@@H](C)O)NC(=O)CNC(=O)[C@@H]2CSSC[C@@H]3NC(=O)[C@H](CCCCN)NC(=O)[C@H](Cc4ccccc4)NC(=O)[C@H](C)NC(=O)[C@H]([C@@H](C)O)NC(=O)[C@H](CSSC[C@H](NC(=O)[C@H](Cc4ccccc4)NC(=O)[C@H](CO)NC(=O)[C@H](CC(C)C)NC(=O)[C@H](CCCNC(=N)N)NC(=O)[C@H](Cc4ccc(O)cc4)NC(=O)[C@H](CCCCN)NC(=O)[C@H]([C@@H](C)O)NC(=O)[C@H](CO)NC(=O)[C@H](Cc4c[nH]cn4)NC(=O)[C@H](CCCCN)NC3=O)C(=O)N[C@@H](CCCNC(=N)N)C(=O)N[C@@H](CCCCN)C(=O)N[C@@H]([C@@H](C)O)C(=O)N2)NC(=O)[C@H](CCCNC(=N)N)NC(=O)[C@H](CO)NC(=O)[C@H](CCCCN)NC(=O)[C@@H]2CCCN2C1=O [[Glu4, Lys16,Thr21]ShK-amide]
- IC50 (hKv1.3): 0.085 nM
- IC50 [1]: 1.38 nM
- IC50 [2]: 3.94 nM

Structure (SMILES): CCCC[C@@H]1NC(=O)[C@H](CO)NC(=O)[C@H](Cc2c[nH]cn2)NC(=O)[C@H](CCCCN)NC(=O)[C@@H]2CSSC[C@@H]3NC(=O)[C@H]([C@@H](C)O)NC(=O)[C@H](CCCCN)NC(=O)[C@H](CCCNC(=N)N)NC(=O)[C@H](CSSC[C@H](NC(=O)[C@H](CCCNC(=N)N)NC(=O)[C@H](CO)NC(=O)[C@H](CCCCN)NC(=O)[C@@H]4CCCN4C(=O)[C@H]([C@@H](C)CC)NC(=O)[C@H]([C@@H](C)O)NC(=O)[C@H](CC(=O)O)NC(=O)[C@H](CCC(=O)O)NC(=O)[C@@H](NC(=O)[C@H](CO)NC(=O)[C@@H](N)CCCNC(=N)N)CSSC[C@@H](C(N)=O)NC(=O)[C@H]([C@@H](C)O)NC(=O)CNC3=O)C(=O)N[C@@H]([C@@H](C)O)C(=O)N[C@@H](C)C(=O)N[C@@H](C)C(=O)N[C@@H](CCCCN)C(=O)N2)NC(=O)[C@H](Cc2ccccc2)NC(=O)[C@H](CO)NC(=O)[C@H](CC(C)C)NC(=O)[C@H](CCCNC(=N)N)NC(=O)[C@H](Cc2ccc(O)cc2)NC(=O)[C@H](CCCCN)NC1=O [[Glu4,A1a15,Lys16,Nle21]ShK-amide]
- IC50 (hKv1.3): 0.168 nM
- IC50 [1]: 0.856 nM
- IC50 [2]: 0.901 nM

Structure (SMILES): CCCC[C@@H]1NC(=O)[C@H](CO)NC(=O)[C@H](Cc2c[nH]cn2)NC(=O)[C@H](CCCCN)NC(=O)[C@@H]2CSSC[C@@H]3NC(=O)[C@H]([C@@H](C)O)NC(=O)[C@H](CCCNC(=N)N)NC(=O)[C@H](CCCNC(=N)N)NC(=O)[C@H](CSSC[C@H](NC(=O)[C@H](CCCNC(=N)N)NC(=O)[C@H](CO)NC(=O)[C@H](CCCCN)NC(=O)[C@@H]4CCCN4C(=O)[C@H]([C@@H](C)CC)NC(=O)[C@H]([C@@H](C)O)NC(=O)[C@H](CC(=O)O)NC(=O)[C@H](CCC(=O)O)NC(=O)[C@@H](NC(=O)[C@H](CO)NC(=O)[C@@H](N)CCCNC(=N)N)CSSC[C@@H](C(N)=O)NC(=O)[C@H]([C@@H](C)O)NC(=O)CNC3=O)C(=O)N[C@@H]([C@@H](C)O)C(=O)N[C@@H](C)C(=O)N[C@@H](C)C(=O)N[C@@H](CCCCN)C(=O)N2)NC(=O)[C@H](Cc2ccccc2)NC(=O)[C@H](CO)NC(=O)[C@H](CC(C)C)NC(=O)[C@H](CCCNC(=N)N)NC(=O)[C@H](Cc2ccc(O)cc2)NC(=O)[C@H](CCCCN)NC1=O [[Glu4,Ala15,Lys16,Nle21, Arg30]ShK-amide]
- IC50 (hKv1.3): 0.118 nM
- IC50 [1]: 0.647 nM
- IC50 [2]: 0.816 nM

Structure (SMILES): CC[C@H](C)[C@@H]1NC(=O)[C@H]([C@@H](C)O)NC(=O)[C@H](CC(=O)O)NC(=O)[C@H](CCC(=O)O)NC(=O)[C@@H](NC(=O)[C@H](CO)NC(=O)[C@@H](N)CCCNC(=N)N)CSSC[C@@H](C(=O)O)NC(=O)[C@H]([C@@H](C)O)NC(=O)CNC(=O)[C@@H]2CSSC[C@@H]3NC(=O)[C@H](CCCCN)NC(=O)[C@H](C)NC(=O)[C@H](C)NC(=O)[C@H]([C@@H](C)O)NC(=O)[C@H](CSSC[C@H](NC(=O)[C@H](Cc4ccccc4)NC(=O)[C@H](CO)NC(=O)[C@H](CC(C)C)NC(=O)[C@H](CCCNC(=N)N)NC(=O)[C@H](Cc4ccc(O)cc4)NC(=O)[C@H](CCCCN)NC(=O)[C@H](CCSC)NC(=O)[C@H](CO)NC(=O)[C@H](Cc4c[nH]cn4)NC(=O)[C@H](CCCCN)NC3=O)C(=O)N[C@@H](CCCNC(=N)N)C(=O)N[C@@H](CCCNC(=N)N)C(=O)N[C@@H]([C@@H](C)O)C(=O)N2)NC(=O)[C@H](CCCNC(=N)N)NC(=O)[C@H](CCCNC(=N)N)NC(=O)[C@H](CCCCN)NC(=O)[C@@H]2CCCN2C1=O [[Glu4,Arg10,30,A1a15,Lys16]ShK]
- IC50 (hKv1.3): 0.14 nM
- IC50 [1]: 0.209 nM
- IC50 [2]: 0.305 nM

Structure (SMILES): CC[C@H](C)[C@@H]1NC(=O)[C@H]([C@@H](C)O)NC(=O)[C@H](CC(=O)O)NC(=O)[C@H](CCC(=O)O)NC(=O)[C@@H](NC(=O)[C@H](CO)NC(=O)[C@@H](N)CCCNC(=N)N)CSSC[C@@H](C(=O)N[C@@H](C)C(=O)O)NC(=O)[C@H]([C@@H](C)O)NC(=O)CNC(=O)[C@@H]2CSSC[C@@H]3NC(=O)[C@H](CCCCN)NC(=O)[C@H](Cc4ccccc4)NC(=O)[C@H](C)NC(=O)[C@H]([C@@H](C)O)NC(=O)[C@H](CSSC[C@H](NC(=O)[C@H](Cc4ccccc4)NC(=O)[C@H](CO)NC(=O)[C@H](CC(C)C)NC(=O)[C@H](CCCNC(=N)N)NC(=O)[C@H](Cc4ccc(O)cc4)NC(=O)[C@H](CCCCN)NC(=O)[C@H](CCC(N)=O)NC(=O)[C@H](CO)NC(=O)[C@H](Cc4c[nH]cn4)NC(=O)[C@H](CCCCN)NC3=O)C(=O)N[C@@H](CCCNC(=N)N)C(=O)N[C@@H](CCCCN)C(=O)N[C@@H]([C@@H](C)O)C(=O)N2)NC(=O)[C@H](CCCNC(=N)N)NC(=O)[C@H](CO)NC(=O)[C@H](CCCCN)NC(=O)[C@@H]2CCCN2C1=O [[Glu4,Lys16,Gln21]ShK-Ala]
- IC50 (hKv1.3): 26.4 nM
- IC50 [1]: 0.137 nM
- IC50 [2]: 0.265 nM
